Several values for one entry are separate records, joined by “and”; a condition that tells them apart may be missing. Equal values may be shown once. Inconclusive results and toxic doses are left out. How the source made its calls: active means survival T/C of 150% or more; inactive means T/C below 125% in these data.
System: CD2F1 mice, L1210 leukemia ip, survival T/C
Assay: NCI In Vivo Anticancer Drug Screen. Data for tumor model L1210 Leukemia (intraperitoneal) in CD2F1 (CDF1) mice
Settings: higher = longer survival
Summary of the method: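 Ratio T/C, where T is the treated-group value and C the vehicle-dosed control value, from mice implanted with a transplantable tumor.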

[1] = endpoint: mean survival time, dose: 100.0 mg/kg/injection, schedule: Q01DX009 (ip), vehicle: saline with Tween-80
[2] = endpoint: mean survival time, dose: 200.0 mg/kg/injection, schedule: Q01DX009 (ip), vehicle: saline with Tween-80
[3] = endpoint: mean survival time, dose: 400.0 mg/kg/injection, schedule: Q01DX009 (ip), vehicle: saline with Tween-80
[4] = endpoint: mean survival time, dose: 100.0 mg/kg/injection, schedule: Q01DX001 (ip), vehicle: saline with Tween-80
[5] = endpoint: mean survival time, dose: 200.0 mg/kg/injection, schedule: Q01DX001 (ip), vehicle: saline with Tween-80
[6] = endpoint: mean survival time, dose: 400.0 mg/kg/injection, schedule: Q01DX001 (ip), vehicle: saline with Tween-80
[7] = endpoint: mean survival time, dose: 25.0 mg/kg/injection, schedule: Q01DX009 (ip), vehicle: saline with Tween-80
[8] = endpoint: mean survival time, dose: 50.0 mg/kg/injection, schedule: Q01DX009 (ip), vehicle: saline with Tween-80
[9] = endpoint: mean survival time, dose: 25.0 mg/kg/injection, schedule: Q01DX009 (ip), vehicle: saline
[10] = endpoint: mean survival time, dose: 100.0 mg/kg/injection, schedule: Q04DX003 (ip), vehicle: saline with Tween-80
[11] = endpoint: mean survival time, dose: 200.0 mg/kg/injection, schedule: Q04DX003 (ip), vehicle: saline with Tween-80
[12] = endpoint: mean survival time, dose: 400.0 mg/kg/injection, schedule: Q04DX003 (ip), vehicle: saline with Tween-80
[13] = endpoint: mean survival time, dose: 50.0 mg/kg/injection, schedule: Q01DX009 (ip), vehicle: saline
[14] = endpoint: mean survival time, dose: 100.0 mg/kg/injection, schedule: Q01DX009 (ip), vehicle: saline
[15] = endpoint: mean survival time, dose: 200.0 mg/kg/injection, schedule: Q01DX009 (ip), vehicle: saline

Measured: T/C

COC(=S)C(c1ccccc1)(c1ccccc1)c1ccccc1
inactive: endpoint: mean survival time, dose: 100.0 mg/kg/injection, schedule: Q04DX002 (ip), vehicle: Klucel (hydroxypropylcellulose) (HPC) 93 % of control | endpoint: mean survival time, dose: 200.0 mg/kg/injection, schedule: Q04DX002 (ip), vehicle: Klucel (hydroxypropylcellulose) (HPC) 89 % of control | endpoint: mean survival time, dose: 400.0 mg/kg/injection, schedule: Q04DX002 (ip), vehicle: Klucel (hydroxypropylcellulose) (HPC) 89 % of control

COCc1nccc2c1[nH]c1ccccc12
inactive: [1] 92 % of control | [2] 110 % of control | [3] 107 % of control

c1cc2c3c(cccc3c1)C1C2C2c3cccc4cccc(c34)C12 (centres undefined)
inactive: [4] 93 % of control | [5] 97 % of control | [6] 100 % of control

CC1(C)OC2C(/C=C\C(=O)c3ccccc3)OC(n3ccc(=O)[nH]c3=O)C2O1 (centres undefined)
inactive: endpoint: mean survival time, dose: 12.5 mg/kg/injection, schedule: Q01DX005 (ip), vehicle: distilled water + Tween-80 102 % of control | endpoint: mean survival time, dose: 25.0 mg/kg/injection, schedule: Q01DX005 (ip), vehicle: distilled water + Tween-80 100 % of control | endpoint: mean survival time, dose: 50.0 mg/kg/injection, schedule: Q01DX005 (ip), vehicle: distilled water + Tween-80 96 % of control | endpoint: mean survival time, dose: 100.0 mg/kg/injection, schedule: Q01DX005 (ip), vehicle: distilled water + Tween-80 103 % of control

[B-][N+](C)(C)Cc1ccccc1
inactive: [7] 94 % of control | [8] 88 % of control | [4] 101 % of control

NC(N)=NC(N)=Nc1ccc(-c2ccc(N=C(N)N=C(N)N)cc2)cc1
inactive: endpoint: mean survival time, dose: 0.78 mg/kg/injection, schedule: Q01DX009 (ip), vehicle: saline 100 % of control | endpoint: mean survival time, dose: 1.56 mg/kg/injection, schedule: Q01DX009 (ip), vehicle: saline 105 % of control | endpoint: mean survival time, dose: 3.13 mg/kg/injection, schedule: Q01DX009 (ip), vehicle: saline 102 % of control | endpoint: mean survival time, dose: 6.25 mg/kg/injection, schedule: Q01DX009 (ip), vehicle: saline 111 % of control | endpoint: mean survival time, dose: 12.5 mg/kg/injection, schedule: Q01DX009 (ip), vehicle: saline 104 % of control | [9] 111 % of control

N#Cc1cccc[n+]1Cc1ccc([N+](=O)[O-])cc1
inactive: [7] 108 % of control | [8] 101 % of control

O=C(CC(=O)Nc1ccccc1)Nc1ccccc1
inactive: [10] 100 % of control | [11] 100 % of control | [12] 99 % of control

Clc1ccc(Oc2ccc(Cl)cc2)cc1
inactive: [8] 94 % of control | [1] 100 % of control | [2] 105 % of control

CN(C)c1ccc(/C=N/NC(=O)c2ccccc2NC(=O)c2ccccc2Cl)cc1
inactive: endpoint: mean survival time, dose: 50.0 mg/kg/injection, schedule: Q01DX009 (ip), vehicle: Klucel (hydroxypropylcellulose) (HPC) 87 % of control | endpoint: mean survival time, dose: 100.0 mg/kg/injection, schedule: Q01DX009 (ip), vehicle: Klucel (hydroxypropylcellulose) (HPC) 94 % of control | endpoint: mean survival time, dose: 200.0 mg/kg/injection, schedule: Q01DX009 (ip), vehicle: Klucel (hydroxypropylcellulose) (HPC) 91 % of control

OC1(Cc2ccccc2)CCCCCC1
inactive: endpoint: mean survival time, dose: 100.0 mg/kg/injection, schedule: Q04DX002 (ip), vehicle: other 95 % of control | endpoint: mean survival time, dose: 200.0 mg/kg/injection, schedule: Q04DX002 (ip), vehicle: other 92 % of control | endpoint: mean survival time, dose: 400.0 mg/kg/injection, schedule: Q04DX002 (ip), vehicle: other 92 % of control

COc1ccc(Cl)c2c1C(=O)C(=O)N2
inactive: [10] 91 % of control | [11] 98 % of control | [12] 98 % of control

CC(c1ccccc1C(=O)O)c1cc(F)cc2ccccc12 (centres undefined)
inactive: endpoint: median survival time, dose: 25.0 mg/kg/injection, schedule: Q04DX003 (ip), vehicle: saline with Tween-80 111 % of control | endpoint: median survival time, dose: 50.0 mg/kg/injection, schedule: Q04DX003 (ip), vehicle: saline with Tween-80 111 % of control | endpoint: median survival time, dose: 100.0 mg/kg/injection, schedule: Q04DX003 (ip), vehicle: saline with Tween-80 88 % of control | endpoint: median survival time, dose: 200.0 mg/kg/injection, schedule: Q04DX003 (ip), vehicle: saline with Tween-80 88 % of control

O=C(N/N=C/c1ccc(O)cc1O)c1cccnc1
inactive: endpoint: mean survival time, dose: 6.25 mg/kg/injection, schedule: Q01DX009 (ip), vehicle: olive oil, sesame oil, peanut oil 102 % of control | endpoint: mean survival time, dose: 12.5 mg/kg/injection, schedule: Q01DX009 (ip), vehicle: olive oil, sesame oil, peanut oil 98 % of control | endpoint: mean survival time, dose: 25.0 mg/kg/injection, schedule: Q01DX009 (ip), vehicle: olive oil, sesame oil, peanut oil 98 % of control | endpoint: mean survival time, dose: 50.0 mg/kg/injection, schedule: Q01DX009 (ip), vehicle: olive oil, sesame oil, peanut oil 98 % of control | endpoint: mean survival time, dose: 100.0 mg/kg/injection, schedule: Q01DX009 (ip), vehicle: olive oil, sesame oil, peanut oil 100 % of control

CO[C@H]1/C=C/O[C@@]2(C)Oc3c(C)c(O)c4c(O)c(c(/C=N/N5C(C)CN(Cc6ccccc6)CC5C)c(O)c4c3C2=O)NC(=O)/C(C)=C\C=C\[C@H](C)[C@H](O)[C@@H](C)[C@@H](O)[C@@H](C)[C@H](OC(C)=O)[C@@H]1C (some centres undefined)
inactive: [8] 96 % of control | [1] 100 % of control | [2] 96 % of control | [11] 90 % of control

CCCCCCCC[n+]1ccc(C#N)cc1
inactive: endpoint: mean survival time, dose: 18.8 mg/kg/injection, schedule: Q01DX009 (ip), vehicle: saline 98 % of control | endpoint: mean survival time, dose: 37.5 mg/kg/injection, schedule: Q01DX009 (ip), vehicle: saline 93 % of control

OC1(c2ccccc2)c2cscc2C(O)(c2ccccc2)c2c(Cl)sc(Cl)c21 (centres undefined)
inactive: endpoint: mean survival time, dose: 6.25 mg/kg/injection, schedule: Q01DX001 (ip), vehicle: saline with Tween-80 100 % of control | endpoint: mean survival time, dose: 12.5 mg/kg/injection, schedule: Q01DX001 (ip), vehicle: saline with Tween-80 95 % of control | endpoint: mean survival time, dose: 25.0 mg/kg/injection, schedule: Q01DX001 (ip), vehicle: saline with Tween-80 88 % of control

CCOC(=O)c1cnc(SC)nc1NCc1cccc(C)c1
inactive: [4] 98 % of control | [5] 96 % of control | [6] 91 % of control

C/C=C/C=C1/OC(C)=C(C(C)=O)C1=O
inactive: endpoint: mean survival time, dose: 12.5 mg/kg/injection, schedule: Q01DX009 (ip), vehicle: saline with Tween-80 96 % of control and 97 % of control | [7] 90 % of control and 95 % of control | [8] 90 % of control and 109 % of control | [1] 100 % of control and 106 % of control | [2] 100 % of control

O=C1OCCO1
inactive: [1] 92 % of control | [2] 95 % of control | [3] 97 % of control

NC(=S)N/N=C/c1cccnc1
inactive: [13] 109 % of control | [14] 101 % of control | [15] 106 % of control

Cc1cc2nc(C(=C(c3nc4cc(C)c(C)cc4[nH]3)c3nc4cc(C)c(C)cc4[nH]3)c3nc4cc(C)c(C)cc4[nH]3)[nH]c2cc1C
inactive: [10] 97 % of control | [11] 94 % of control | [12] 89 % of control

CC(NC(=O)NCCCl)c1ccccc1 (centres undefined)
inactive: [9] 88 % of control | [13] 86 % of control

CC12CCC3C(CCC4=CC(=O)C(C(O)(C(F)(F)F)C(F)(F)F)CC43C)C1CC(C(O)(C(F)(F)F)C(F)(F)F)C2=O (centres undefined)
inactive: endpoint: mean survival time, dose: 100.0 mg/kg/injection, schedule: Q01DX009 (sc), vehicle: steriod suspending solution 90 % of control | endpoint: mean survival time, dose: 200.0 mg/kg/injection, schedule: Q01DX009 (sc), vehicle: steriod suspending solution 95 % of control | endpoint: mean survival time, dose: 400.0 mg/kg/injection, schedule: Q01DX009 (sc), vehicle: steriod suspending solution 92 % of control

CCC(C)CC(=O)O (centres undefined)
inactive: [14] 95 % of control | endpoint: mean survival time, dose: 100.0 mg/kg/injection, schedule: Q04DX003 (ip), vehicle: saline 102 % of control | [15] 98 % of control | endpoint: mean survival time, dose: 200.0 mg/kg/injection, schedule: Q04DX003 (ip), vehicle: saline 102 % of control | endpoint: mean survival time, dose: 400.0 mg/kg/injection, schedule: Q01DX009 (ip), vehicle: saline 96 % of control | endpoint: mean survival time, dose: 400.0 mg/kg/injection, schedule: Q04DX003 (ip), vehicle: saline 97 % of control

O=C(C(=C(c1ccccc1)c1ccccc1)c1ccccc1)c1ccccc1
inactive: endpoint: mean survival time, dose: 100.0 mg/kg/injection, schedule: Q04DX002 (ip), vehicle: saline with Tween-80 93 % of control | endpoint: mean survival time, dose: 200.0 mg/kg/injection, schedule: Q04DX002 (ip), vehicle: saline with Tween-80 96 % of control | endpoint: mean survival time, dose: 400.0 mg/kg/injection, schedule: Q04DX002 (ip), vehicle: saline with Tween-80 93 % of control

CC1CCC(O)C2(C)CC(O)C(C(C)C(=O)O)CC12 (centres undefined)
inactive: [4] 92 % of control | [5] 92 % of control | [6] 88 % of control

CC(C)(C)OC(=O)NC(CSSCC(NC(=O)OC(C)(C)C)C(=O)O)C(=O)O (centres undefined)
inactive: [10] 92 % of control | [11] 92 % of control | [12] 90 % of control

Reference: PubChem BioAssay AID256 (DTP/NCI, 2004)
